Test results taken from patent US20250154554A1, “ANTIMICROBIAL SUSCEPTIBILITY” (priority 2022, published 2025).
Where two headings read alike, the source gives them in different places.

Experiments:
[1] = test system: Gram-positive bacteria (Staphylococcus spp, Enterococcus spp); assay: Reference method (RM): disk diffusion and/or broth microdilution, S/I/R classification, Gram-positive strains; format: cell-based; details: for CLSI RM R / EUCAST RM R: number of strains resistant; for CLSI RM S / EUCAST RM S: number of strains susceptible;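 for all read-outs here: susceptibility categories assigned with the latest EUCAST breakpoint tables or CLSI M100 29th edition breakpoints, with quality control of the reference methods following EUCAST and CLSI guidance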
[2] = test system: Gram-negative bacteria (Enterobacterales, Pseudomonas, Acinetobacter); details: for RM I (strains intermediate by reference method) / RM R (strains resistant by reference method) / RM S (strains susceptible by reference method): total of 3 sites, blood cultures; for CLSI RM I: number of strains I; for CLSI RM R / EUCAST RM R: number of strains resistant; for CLSI RM S / EUCAST RM S: number of strains susceptible
E. coli = assay: MIC of strains giving very major errors (VME); format: cell-based
K. pneumoniae = assay: MIC of strains giving very major errors (VME); format: cell-based
Staphylococcus aureus = assay: Vancomycin MIC by FASTgrampos kit versus broth microdilution (reference method); format: cell-based
[3] = CLSI, FASTinov, Porto, spiked blood cultures
[4] = CLSI, total of 3 sites, blood cultures
[5] = EUCAST, FASTinov, Porto, spiked blood cultures
[6] = EUCAST, total of 3 sites, blood cultures
[7] = CLSI, Hospital Ramon et Cajal, Madrid, patients blood cultures
[8] = CLSI, Hospital S. João, Porto, patients' blood cultures
[9] = EUCAST, Hospital Ramon et Cajal, Madrid, patients blood cultures
[10] = EUCAST, Hospital S. João, Porto, patients' blood cultures
[11] = CLSI, Hospital Ramon et Cajal, Madrid, patients' blood cultures
[12] = CLSI, FASTinov, Porto, spiked on blood cultures
[13] = EUCAST, FASTinov, Porto, spiked on blood cultures
[14] = EUCAST, Hospital Ramon et Cajal, Madrid, patients' blood cultures

Compound: CC1(C)S[C@@H]2[C@H](NC(=O)[C@H](N)c3ccccc3)C(=O)N2[C@H]1C(=O)O [Ampicillin]
- RM R (strains resistant by reference method) [1, 3]: 23
- RM S (strains susceptible by reference method) [1, 3]: 42
- RM R (strains resistant by reference method) [1, 4]: 38
- RM S (strains susceptible by reference method) [1, 4]: 61
- RM R (strains resistant by reference method) [1, 5]: 23
- RM S (strains susceptible by reference method) [1, 5]: 42
- RM I (strains intermediate by reference method) [1, 6]: 2
- RM R (strains resistant by reference method) [1, 6]: 38
- RM S (strains susceptible by reference method) [1, 6]: 59
- EUCAST RM I ([1]; number of strains I, EUCAST, Hospital Ramon et Cajal, Madrid, patients blood cultures): 2
- CLSI RM R [1, 7]: 10
- CLSI RM R [1, 8]: 5
- EUCAST RM R [1, 9]: 10
- EUCAST RM R [1, 10]: 5
- CLSI RM S [1, 7]: 12
- CLSI RM S [1, 8]: 7
- EUCAST RM S [1, 9]: 10
- EUCAST RM S [1, 10]: 7
- RM I (strains intermediate by reference method) ([2]; CLSI): 1
- RM R (strains resistant by reference method) ([2]; CLSI): 164
- RM S (strains susceptible by reference method) ([2]; CLSI): 66
- RM R (strains resistant by reference method) ([2]; EUCAST): 165
- RM S (strains susceptible by reference method) ([2]; EUCAST): 66
- CLSI RM I [2, 11]: 1
- CLSI RM R [2, 12]: 67
- CLSI RM R [2, 11]: 53
- CLSI RM R [2, 8]: 44
- EUCAST RM R [2, 13]: 67
- EUCAST RM R [2, 14]: 54
- EUCAST RM R [2, 10]: 44
- CLSI RM S [2, 12]: 14
- CLSI RM S [2, 11]: 20
- CLSI RM S [2, 8]: 32
- EUCAST RM S [2, 13]: 14
- EUCAST RM S [2, 14]: 20
- EUCAST RM S [2, 10]: 32

Compound: CO/N=C(\C(=O)N[C@@H]1C(=O)N2C(C(=O)[O-])=C(C[N+]3(C)CCCC3)CS[C@H]12)c1csc(N)n1 [Cefepime]
- MIC (E. coli; Escherichia coli, strain EB 022, site 2, read-out: MIC): 4 µg/mL
- MIC (E. coli; Escherichia coli, strain EB 052, site 2, read-out: MIC): 64 µg/mL
- MIC (K. pneumoniae; Klebsiella pneumoniae, strain EB 033, site 2, read-out: MIC): 32 µg/mL

Compound: CN[C@H](CC(C)C)C(=O)N[C@H]1C(=O)N[C@@H](CC(N)=O)C(=O)N[C@H]2C(=O)N[C@H]3C(=O)N[C@H](C(=O)N[C@H](C(=O)O)c4cc(O)cc(O)c4-c4cc3ccc4O)[C@H](O)c3ccc(c(Cl)c3)Oc3cc2cc(c3O[C@@H]2O[C@H](CO)[C@@H](O)[C@H](O)[C@H]2O[C@H]2C[C@](C)(N)[C@H](O)[C@H](C)O2)Oc2ccc(cc2Cl)[C@H]1O [Vancomycin]
- number of S. aureus strains in MIC distribution (Staphylococcus aureus; MIC by FASTgrampos 0.25 mg/L, MIC by microdilution 0.25 mg/L): 2
- number of S. aureus strains in MIC distribution (Staphylococcus aureus; MIC by FASTgrampos 0.25 mg/L, MIC by microdilution 0.5 mg/L): 15
- number of S. aureus strains in MIC distribution (Staphylococcus aureus; MIC by FASTgrampos 0.5 mg/L, MIC by microdilution 0.5 mg/L): 21
- number of S. aureus strains in MIC distribution (Staphylococcus aureus; MIC by FASTgrampos 0.5 mg/L, MIC by microdilution 1 mg/L): 10
- number of S. aureus strains in MIC distribution (Staphylococcus aureus; MIC by FASTgrampos 1 mg/L, MIC by microdilution 0.5 mg/L): 3
- number of S. aureus strains in MIC distribution (Staphylococcus aureus; MIC by FASTgrampos 1 mg/L, MIC by microdilution 1 mg/L): 7
- number of S. aureus strains in MIC distribution (Staphylococcus aureus; MIC by FASTgrampos 2 mg/L, MIC by microdilution 1 mg/L): 3
- number of S. aureus strains in MIC distribution (Staphylococcus aureus; MIC by FASTgrampos 2 mg/L, MIC by microdilution 2 mg/L): 2
- RM I (strains intermediate by reference method) [1, 3]: 3
- RM R (strains resistant by reference method) [1, 3]: 7
- RM S (strains susceptible by reference method) [1, 3]: 100
- RM I (strains intermediate by reference method) [1, 4]: 3
- RM R (strains resistant by reference method) [1, 4]: 8
- RM S (strains susceptible by reference method) [1, 4]: 254
- RM R (strains resistant by reference method) [1, 5]: 10
- RM S (strains susceptible by reference method) [1, 5]: 100
- RM R (strains resistant by reference method) [1, 6]: 11
- RM S (strains susceptible by reference method) [1, 6]: 254
- CLSI RM R [1, 8]: 1
- EUCAST RM R [1, 10]: 1
- CLSI RM S [1, 7]: 56
- CLSI RM S [1, 8]: 98
- EUCAST RM S [1, 9]: 56
- EUCAST RM S [1, 10]: 98

Compound: Ceftolozane-tazobactam
- MIC (K. pneumoniae; strain EB 032, site 3): 4 µg/mL
- MIC (K. pneumoniae; strain EB 101, site 1): >32 µg/mL
- MIC (K. pneumoniae; strain EB 677, site 1): 16 µg/mL
- MIC (K. pneumoniae; strain EB 679, site 1): >32 µg/mL
- RM I (strains intermediate by reference method) ([2]; CLSI): 5
- RM R (strains resistant by reference method) ([2]; CLSI): 40
- RM S (strains susceptible by reference method) ([2]; CLSI): 267
- RM R (strains resistant by reference method) ([2]; EUCAST): 45
- RM S (strains susceptible by reference method) ([2]; EUCAST): 267
- CLSI RM I [2, 12]: 4
- CLSI RM I [2, 8]: 1
- CLSI RM R [2, 12]: 37
- CLSI RM R [2, 11]: 3
- EUCAST RM R [2, 13]: 41
- EUCAST RM R [2, 14]: 3
- EUCAST RM R [2, 10]: 1
- CLSI RM S [2, 12]: 112
- CLSI RM S [2, 11]: 75
- CLSI RM S [2, 8]: 80
- EUCAST RM S [2, 13]: 112
- EUCAST RM S [2, 14]: 75
- EUCAST RM S [2, 10]: 80

Compound: Gentamicin
- MIC (E. coli; strain EB 286, site 3): 8 µg/mL
- RM R (strains resistant by reference method) [1, 3]: 15
- RM S (strains susceptible by reference method) [1, 3]: 51
- RM R (strains resistant by reference method) [1, 4]: 54
- RM S (strains susceptible by reference method) [1, 4]: 147
- RM R (strains resistant by reference method) [1, 5]: 29
- RM S (strains susceptible by reference method) [1, 5]: 37
- RM R (strains resistant by reference method) [1, 6]: 70
- RM S (strains susceptible by reference method) [1, 6]: 131
- CLSI RM R [1, 7]: 15
- CLSI RM R [1, 8]: 24
- EUCAST RM R [1, 9]: 17
- EUCAST RM R [1, 10]: 24
- CLSI RM S [1, 7]: 28
- CLSI RM S [1, 8]: 68
- EUCAST RM S [1, 9]: 26
- EUCAST RM S [1, 10]: 68
- RM I (strains intermediate by reference method) ([2]; CLSI): 6
- RM R (strains resistant by reference method) ([2]; CLSI): 77
- RM S (strains susceptible by reference method) ([2]; CLSI): 262
- RM R (strains resistant by reference method) ([2]; EUCAST): 69
- RM S (strains susceptible by reference method) ([2]; EUCAST): 194
- CLSI RM I [2, 12]: 3
- CLSI RM I [2, 11]: 1
- CLSI RM I [2, 8]: 2
- CLSI RM R [2, 12]: 60
- CLSI RM R [2, 11]: 9
- CLSI RM R [2, 8]: 8
- EUCAST RM R [2, 13]: 47
- EUCAST RM R [2, 14]: 10
- EUCAST RM R [2, 10]: 12
- CLSI RM S [2, 12]: 120
- CLSI RM S [2, 11]: 70
- CLSI RM S [2, 8]: 72
- EUCAST RM S [2, 13]: 64
- EUCAST RM S [2, 14]: 65
- EUCAST RM S [2, 10]: 65
